Patent US5753691A, “Agents for inhibiting the production of IL-1β and the release of TNFα” (Nisshin Flour Milling Co., Ltd., priority 1994, dated 1998)

Experiments:
IL-1β = assay: Inhibition of IL-1β production in THP-1 cells stimulated with PMA and polyinosic acid (enzyme immunoassay); format: cell-based; conditions: Homo sapiens, 3×10^6 cells/ml, compound 1 h, then PMA 2 μg/ml and polyinosic acid 200 μg/ml, 24 h, supernatant
Description: The pyrrolidinone derivatives of the present invention were evaluated for the activity to inhibit the production of IL-1β, in accordance with the following method.
(§1) Then, 12-o-tetradecanoylphorbol-13-acetate (PMA) and polyinosic acid were added to each well so as to provide final concentrations of 2 μg/ml and 200 μg/ml, respectively. […] After incubation, a supernatant was recovered from each well by means of Pipetteman available from Gilson Co., Ltd. Then, an amount of the IL-1β in the supernatant was assayed by means of the enzyme immunoassay kit available from Cayman Chemical Co., Ltd.
(§2) The results are summarized below, expressed in terms of IC50 values in μM unit, wherein the amount of IL-1β produced at the time of no addition of the pyrrolidinone derivative is defined as 100 and the concentration of each test compound of the present invention to inhibit 50% the IL-1β production is defined as IC50.

TNFα = assay: Inhibition of TNFα release from THP-1 cells stimulated with PMA and polyinosic acid (human TNFα ELISA); format: cell-based; conditions: 3×10^6 cells/ml, compound 1 h, then PMA 2 μg/ml and polyinosic acid 200 μg/ml, 24 h, supernatant
Description: The pyrrolidinone derivatives of the present invention were evaluated for the activity to inhibit the release of TNFα, in accordance with the following method.
as §1, with “PMA” for “12-o-tetradecanoylphorbol-13-acetate (PMA)”, “An” for “Then, an”, “TNFα” for “the IL-1β”, “human TNFα ELISA” for “enzyme immunoassay”, “Genzyme” for “Cayman Chemical”
as §2, with “TNFα released” for “IL-1β produced”, “derivatives” for “derivative”, “TNFα release” for “IL-1β production”

Structure (SMILES)	IC50 (IL-1β) [µM]	IC50 (TNFα) [µM]	cytotoxicity (THP-1 cells)
O=C(C=Cc1ccccc1)N1CCCC1=O [Compound 1]	26	2.8	–
COc1ccccc1C=CC(=O)N1CCCC1=O [Compound 2]	86	–	–
COc1ccc(C=CC(=O)N2CCCC2=O)cc1 [Compound 4]	73	–	–
O=C(C=Cc1ccc([N+](=O)[O-])cc1[N+](=O)[O-])N1CCCC1=O [Compound 10]	–	–	no cytotoxicity was found
O=C(C=Cc1ccncc1)N1CCCC1=O [Compound 14]	42	–	–

The remaining compounds from weak to strong by IC50 (IL-1β), led by results:

IC50 (IL-1β) [µM]	IC50 (TNFα) [µM]	Structure (SMILES)	cytotoxicity (THP-1 cells)
73	–	COc1cccc(C=CC(=O)N2CCCC2=O)c1 [Compound 3]	–
69	16	COc1ccc(C=CC(=O)N2CCCC2=O)cc1OC [Compound 5]	–
48	30	O=C(C=Cc1cccnc1)N1CCCC1=O [Compound 13]	–
13	3	O=C(C=Cc1ccc([N+](=O)[O-])cc1)N1CCCC1=O [Compound 9]	–
1.4	4.6	O=C(C=Cc1ccccn1)N1CCCC1=O [Compound 12]	–
